Here are results for twelve compounds from patent publication US11078213B2, “Thienopyrimidine compound, preparation method thereof, pharmaceutical composition and application thereof” (HONGYUN BIOTECH CO., LTD., priority 2016, dated 2021).

Data set [1] concerns anaplastic large cell lymphoma Karpas-299. The experiment in a line: Growth inhibitory activity on tumor cells Karpas-299. As to conditions: for IC50: Homo sapiens, Karpas-299 tumor cells. The format is cell-based. The method, then:
(§1) If the tumor cells tested were suspension cells, the assay was carried out in accordance with the method (1) above.
(§2) If the tumor cells tested were adherent cells, cells were incubated 1000-10000 cells/well in a 96-well culture plate until adherent, and then compounds were added. Others were carried out in accordance with the method (1) above.

For another data set, the system named is wild-type BaF3. Put plainly: Growth inhibition of wild-type BaF3 cells (broad-spectrum toxicity). The format is cell-based. The following applies: Mus musculus, read-out: Growth inhibitory activity IC50, BaF3.
Data set [2] addresses EML4-ALK-G1202R BaF3 cells (Homo sapiens, UniProt Q9UM73, G1202R). Put plainly: Growth inhibition of BaF3 cells stably transfected with ALK point mutation G1202R. The following applies: read-out: Growth inhibitory activity IC50, EML4-ALK-G1202R.
Method: (§6) The cell plate with uniformly mixed compound was cultured in a cell culture incubator (37° C.; 5% CO2) for 48 h, then 20 μL of MTS reaction solution was added, uniformly mixed and incubated in the cell culture incubator (37° C.; 5% CO2) for 1-4 hr; OD values at 490 nm were measured by a microplate reader (VARIOSKAN FLASH, Thermo). Three parallels were set in each group of experiments, with 0.1% (a final concentration) DMSO as a negative control, and a medium without cells or compounds as a blank control.
(§7) 4) IC50 calculation: The semi-inhibitory concentration of the compound acting on cell growth was calculated using GradPad Prism 5 software according to the measured cell growth inhibition rate.
Data set [3] concerns the target EML4-ALK-S1206Y BaF3 cells (Homo sapiens, UniProt Q9UM73, S1206Y). The experiment in a line: Growth inhibition of BaF3 cells stably transfected with ALK point mutation S1206Y. The following applies: read-out: Growth inhibitory activity IC50, EML4-ALK-S1206Y.
Method: as §6, §7
For the next data set, the target named is T1, NPM-ALK-BaF3 (Homo sapiens, UniProt Q9UM73).
T1 construct: NPM (nuclear phosphoprotein / nucleophosmin, NPM1, P06748) fusion partner; expressed in transfected cells; host or cells: BaF3; the other entry of the earlier key: NPM1 (P06748, Nucleophosmin)
T1 sequence (Q9UM73 with tags, fused parts or gaps): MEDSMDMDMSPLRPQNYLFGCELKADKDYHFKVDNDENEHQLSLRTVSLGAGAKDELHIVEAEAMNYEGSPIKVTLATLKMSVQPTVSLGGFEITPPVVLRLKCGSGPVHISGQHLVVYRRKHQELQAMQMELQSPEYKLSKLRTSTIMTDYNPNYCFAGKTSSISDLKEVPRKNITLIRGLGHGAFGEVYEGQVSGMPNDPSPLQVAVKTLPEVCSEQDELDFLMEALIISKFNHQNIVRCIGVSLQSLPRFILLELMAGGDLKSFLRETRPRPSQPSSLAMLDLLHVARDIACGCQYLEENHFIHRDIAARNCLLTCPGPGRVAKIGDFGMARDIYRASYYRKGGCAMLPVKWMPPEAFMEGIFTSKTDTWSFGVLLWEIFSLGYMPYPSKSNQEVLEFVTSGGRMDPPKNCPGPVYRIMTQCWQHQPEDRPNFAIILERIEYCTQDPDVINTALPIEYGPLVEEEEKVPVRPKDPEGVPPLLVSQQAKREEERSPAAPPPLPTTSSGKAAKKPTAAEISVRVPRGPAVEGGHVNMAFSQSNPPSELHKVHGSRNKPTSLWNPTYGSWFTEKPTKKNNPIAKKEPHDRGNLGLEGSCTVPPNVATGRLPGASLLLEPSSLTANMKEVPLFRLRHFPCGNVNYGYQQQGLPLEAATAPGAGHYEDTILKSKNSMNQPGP
Put plainly: Growth inhibition of BaF3 cells stably transfected with kinase NPM-ALK (MTS). The format is cell-based. The following applies: compound concentration 3.3 μM, read-out: cell growth inhibition rate, NPM-ALK. On the procedure:
(§3) The specific test method is given as follows:
(§4) 2) Reagent: MTS reaction solution (containing 2 mg/mL of MTS [3-(4,5-dimethylthiazol-2-yl)-5-(3-carboxymethoxyphenyl)-2-(4-sulfophenyl)-2H-tetra zolium, inner Salt]; 100 µg/mL PES ([…])).

For data set [4], the system named is kinase ALK-positive lung cancer cell line H3122. The experiment in a line: Growth inhibitory activity on tumor cells H3122. The format is cell-based. On the procedure: as §1, §2
The target of data set [5] is T2, EML4-ALK(G1202R)-Ba/F3 xenograft (Homo sapiens, UniProt Q9UM73, G1202R).
T2 construct: EML4 (Q9HC35) fusion partner; expressed in transfected cells; host or cells: Ba/F3; the other entry of the earlier key: EML4 (Q9HC35, Echinoderm microtubule-associated protein-like 4)
T2 sequence (Q9UM73 1058-1620 G1202R limits assumed): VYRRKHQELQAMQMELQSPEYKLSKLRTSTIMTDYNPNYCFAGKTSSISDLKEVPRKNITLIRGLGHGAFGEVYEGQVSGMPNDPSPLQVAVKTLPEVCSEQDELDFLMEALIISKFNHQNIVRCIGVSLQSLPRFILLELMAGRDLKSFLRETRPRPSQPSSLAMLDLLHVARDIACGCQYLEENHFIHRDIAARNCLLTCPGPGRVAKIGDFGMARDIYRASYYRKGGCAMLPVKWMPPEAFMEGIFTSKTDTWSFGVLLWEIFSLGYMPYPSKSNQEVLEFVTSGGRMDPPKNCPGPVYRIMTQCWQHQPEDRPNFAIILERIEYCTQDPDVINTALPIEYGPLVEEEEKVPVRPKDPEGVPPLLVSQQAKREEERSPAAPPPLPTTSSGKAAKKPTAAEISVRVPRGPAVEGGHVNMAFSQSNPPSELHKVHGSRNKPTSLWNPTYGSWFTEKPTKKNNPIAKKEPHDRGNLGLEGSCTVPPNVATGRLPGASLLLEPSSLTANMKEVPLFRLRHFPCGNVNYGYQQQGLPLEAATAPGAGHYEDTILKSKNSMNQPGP
Put plainly: Nude mouse xenograft model of EML4-ALK(G1202R)-Ba/F3. The format is in vivo, BALB/c (nu/nu) nude mice. The following applies: 10 consecutive days. On the procedure:
(§5) In this test, BALB/c (nu/nu) nude mice were used, male and female in half, 4-6 weeks old, weighing about 18±2 g, and fed in SPF level environment, strictly sterile operation. The animals to be tested were adapted to the experimental environment 1 week in advance, free access to food and water, and maintained a 12-hour circadian rhythm.
The EML4-ALK(G1202R)-Ba/F3 cells used in the test were cultured with 10% fetal bovine serum in PRMI-1640 medium, and placed in a 37° C., 5% CO2 incubator environment.
A subcutaneous transplantation model of tumor nude mice was established by using cell inoculation method: cells in logarithmic growth phase were collected by filtration, washed with PBS after centrifugation, and resuspended as a single cell suspension with PRMI-1640 medium, 1×10^6 cells/200 μL per nude mouse. The cell suspension was injected subcutaneously in the vicinity of right anterior axillary of a nude mouse using a 1 mL syringe (No. 4.5 needle). When the tumor of tumor-bearing mice grew to a measurable size, the tumor volume was measured daily. When the tumor volume reached about 150 mm^3, the mice were randomly divided into 3 groups, 8 mice each group, and administration was started on the day of grouping. The administration component was IB-1 60 mg/kg (once/day), 40 mg/kg (twice/day, bid), orally administered for 10 consecutive days, and negative control group was administered an equal amount of solvent. Animal weight and tumor size were measured daily during the test. The state of the mice was recorded daily. After the last administration, the mice were anesthetized with 5% chloral hydrate and killed 6 hours. The tumors were taken, weighed and photographed for recording. Tumor Volume (TV) was calculated as: TV=½×a×b^2, where a, b represent long diameter and short diameter of tumor, respectively.

The target of another data set is T3, EML4-ALK-BaF3 (Homo sapiens, UniProt Q9UM73).
T3 construct: EML4 (echinoderm microtubule associated protein like 4, Q9HC35) fusion partner; expressed in transfected cells; host or cells: BaF3; the other entry of the earlier key: EML4 (Q9HC35, Echinoderm microtubule-associated protein-like 4)
T3 sequence (Q9UM73 1058-1620 limits assumed): as the sequence (Q9UM73 1058-1620 G1202R limits assumed) above, with R145G counted along it
The experiment in a line: Growth inhibition of BaF3 cells stably transfected with kinase EML4-ALK (MTS). The format is cell-based. The following applies: compound concentration 3.3 μM, read-out: cell growth inhibition rate, EML4-ALK. On the procedure:
as §3, §4

The target of data set [6] is EML4-ALK-G1269A BaF3 cells (Homo sapiens, UniProt Q9UM73, G1269A). Put plainly: Growth inhibition of BaF3 cells stably transfected with ALK point mutation G1269A. As to conditions: read-out: Growth inhibitory activity IC50, EML4-ALK-G1269A.
Chain of EML4-ALK-G1269A BaF3 cells (Q9UM73 1058-1620 G1269A limits assumed): as the sequence (Q9UM73 1058-1620 G1202R limits assumed) above, with R145G, G212A counted along it
Method: as §6, §7
The test system of the next data set is NCI-H3122 xenograft. The experiment in a line: Nude mouse xenograft model of non-small cell lung cancer H3122 cells. The format is in vivo, BALB/c (nu/nu) nude mice. The following applies: 18 consecutive days. On the procedure:
as §5
The NCI-H3122 cells used in the test were cultured with 10% fetal bovine serum in PRMI-1640 medium, and placed in a 37° C., 5% CO2 incubator environment.
A subcutaneous transplantation model of tumor nude mice was established by using cell inoculation method: cells in logarithmic growth phase were collected by filtration, washed with PBS after centrifugation, and resuspended as a single cell suspension with PRMI-1640 medium, 5×10^6 cells/200 μL per nude mouse. The cell suspension was injected subcutaneously in the vicinity of right anterior axillary of a nude mouse using a 1 mL syringe (No. 4.5 needle). When the tumor of tumor-bearing mice grew to a measurable size, the tumor volume was measured daily. When the tumor volume reached about 150 mm^3, the mice were randomly divided into 4 groups, 5 mice each group, and administration was started on the day of grouping. […] The administration was conducted for 18 consecutive days. Animal weight and tumor size were measured every other day during the test. The state of the mice was recorded daily. After the last administration, the mice were anesthetized with 5% chloral hydrate and killed 6 hours. The tumors were taken, weighed and photographed for recording. Tumor Volume (TV) was calculated as: TV=½×a×b^2, where a, b represent long diameter and short diameter of tumor, respectively.

Data set [7] deals with EML4-ALK-I1171T BaF3 cells (Homo sapiens, UniProt Q9UM73, I1171T). Put plainly: Growth inhibition of BaF3 cells stably transfected with ALK point mutation I1171T. As to conditions: read-out: Growth inhibitory activity IC50, EML4-ALK-I1171T.
Chain of EML4-ALK-I1171T BaF3 cells (Q9UM73 1058-1620 I1171T limits assumed): as the sequence (Q9UM73 1058-1620 G1202R limits assumed) above, with I114T, R145G counted along it
Method: as §6, §7

Chain of EML4-ALK-S1206Y BaF3 cells (Q9UM73 1058-1620 S1206Y limits assumed): as the sequence (Q9UM73 1058-1620 G1202R limits assumed) above, with R145G, S149Y counted along it
Chain of EML4-ALK-G1202R BaF3 cells (Q9UM73 1058-1620 G1202R limits assumed): as the sequence (Q9UM73 1058-1620 G1202R limits assumed) above
Method for wild-type BaF3: as §6, §7

As a reminder, the IC50 is the concentration needed to halve the response being measured. As for `C[C@@H](Oc1cc(-c2cnn(C3CCNCC3)c2)cnc1N)c1c(Cl)ccc(F)c1Cl` [Crizotinib, reference compound], the IC50 in [1] was 0.061 µM.

The term inhibition denotes the drop in the measured response relative to a control, in per cent. For the compound `COc1cc2c(cc1Nc1nc(Nc3ccccc3S(=O)(=O)C(C)C)c3sccc3n1)N(C(=O)CN(C)C)CC2` [IB-1], the IC50 with wild-type BaF3 was 1.6 µM; in data set [2], 0.01 µM; in data set [3], less than 0.004 µM; in [4] (Homo sapiens, NCI-H3122, H3122 tumor cells) it was 0.015 µM; in data set [1] it was less than 0.004 µM; in data set [6], less than 0.004 µM. In addition, the IC50 in data set [7] was less than 0.004 µM. The inhibition at 3.3 µM came out at 96.7% at NPM-ALK-BaF3 and 87.3% at EML4-ALK-BaF3. Also, the “inhibitory activity against H3122 (in words)” value in data set [4] is “good inhibitory activity”. Besides, the tumor growth result is “significantly inhibited tumor growth” in [5] (40 mg/kg (twice/day, bid) orally); “significantly inhibited tumor growth” in data set [5] (60 mg/kg (once/day) orally); “significantly inhibited tumor growth” with NCI-H3122 xenograft (30 mg/kg (once/day) orally); “significantly inhibited tumor growth” in the data set with NCI-H3122 xenograft (50 mg/kg (once/day) orally). The “body weight during administration” value (in data set [5] (drug group); in the data set with NCI-H3122 xenograft (drug group)) was “no significant changes in body weight” each time. In addition, the side effects entry (in data set [5] (drug group); in the data set with NCI-H3122 xenograft (drug group)) was “no obvious side effects” in each case. In addition, in [1], the “inhibitory activity against Karpas-299 (in words)” value is “good inhibitory activity”.

As to `COc1cc(N2CCN(C)CC2)ccc1Nc1nc(Nc2ccccc2P(C)(C)=O)c2sccc2n1` [IK-4], the values for the inhibition at 3.3 µM on NPM-ALK-BaF3 and on EML4-ALK-BaF3 were 77.4% and 99.3%, respectively.

For `COc1cc(C2CCN(C)CC2)c(C)cc1Nc1nc(Nc2ccccc2P(C)(C)=O)c2sccc2n1` [IK-5], the inhibition at 3.3 µM on NPM-ALK-BaF3 was 85.5%; at EML4-ALK-BaF3, 99.6%.

On to `COc1cc(N2CCC(N(C)C)CC2)ccc1Nc1nc(Nc2ccccc2P(C)(C)=O)c2sccc2n1` [IK-6], for which the inhibition at 3.3 µM on NPM-ALK-BaF3 worked out at 90.2%; at EML4-ALK-BaF3, 99.3%.

As to `COC(=O)c1ccccc1Sc1nc(Nc2cc3c(cc2OC)CCN3C(=O)CN(C)C)nc2ccsc12` [IN-1], the inhibition at 3.3 µM came out at 17.7% on NPM-ALK-BaF3 and 100% on EML4-ALK-BaF3.

Turning to `COC(=O)c1ccccc1Sc1nc(Nc2ccc(N3CCC(N4CCN(C)CC4)CC3)cc2OC)nc2ccsc12` [IN-2], the values for the inhibition at 3.3 µM on NPM-ALK-BaF3 and on EML4-ALK-BaF3 were 16.2% and 99.2%, respectively.

With `COC(=O)c1ccccc1Sc1nc(Nc2ccc(N3CCN(C)CC3)cc2OC)nc2ccsc12` [IN-3], the results for the inhibition at 3.3 µM on NPM-ALK-BaF3 and at EML4-ALK-BaF3 were 12.3% and 98.8%, respectively.

For `COC(=O)c1ccccc1Sc1nc(Nc2ccc(N3CCC(O)CC3)cc2)nc2ccsc12` [IN-4], the inhibition at 3.3 µM at NPM-ALK-BaF3 worked out at 7.09%; on EML4-ALK-BaF3 it was 98.3%.

Take `COC(=O)c1ccccc1Sc1nc(Nc2ccc(S(N)(=O)=O)cc2)nc2ccsc12` [IN-5]: the inhibition at 3.3 µM on NPM-ALK-BaF3 came to 6.73%; on EML4-ALK-BaF3, 30.9%.

`COC(=O)c1ccccc1Sc1nc(Nc2ccc(N3CCC(N4CCCC4)CC3)cc2OC)nc2ccsc12` [IN-6]: the inhibition at 3.3 µM on NPM-ALK-BaF3 was 46.7%; at EML4-ALK-BaF3, 98.4%.

Consider `COC(=O)c1ccccc1Sc1nc(Nc2cc(C)c(C3CCN(C)CC3)cc2OC)nc2ccsc12` [IN-7], for which the inhibition at 3.3 µM was 70% on NPM-ALK-BaF3 and more than 99% at EML4-ALK-BaF3.
